Experimental data published in patent publication US9248200B2, “Method of delivering an anti-cancer agent to a cell” (Agency for Science, Technology and Research, priority 2007, dated 2016).

What was measured:
[1] = tested on: human normal mammary epithelial cells (HMEC); test: Cytotoxicity test (Alamar Blue cell viability); assay type: cell-based; conditions: treated 2 days, different concentrations, FIG. 1
Description: Cells were plated (1×10^4 cells in mammary epithelial growth medium/well) in quintuplicate and octuplicate for samples and control, respectively, in 96-well microplates, and allowed to adhere overnight.

[2] = molecular target: proteinase K (Parengyodontium album, UniProt P06873); test: Proteolysis assessment (FITC-BSA fluorescence with proteinase K); conditions: proteinase K 0.05 mg/ml, over time; FIG. 3
Description: Proteolysis Assessment: Protein degradation was determined by monitoring the fluorescence intensity increment in FITC-BSA when samples were subjected to proteinase K (0.05 mg/mI), using a fluorescence spectrophotometer (Hitachi, Japan, λex=490 nm and λem=530 nm). All measurements were run in triplicate.

[3] = tested on: SKBR-3 (HER2-overexpressing human breast cancer cell line); test: Cancer cell proliferation assessment (Alamar Blue); assay type: cell-based; conditions: SKBR-3 cells; Herceptin 0.5 mg/ml; FIG. 4
Description: Cancer Cell Proliferation Assessment: SKBR-3 cells (ATCC, HTB3O, USA) were plated (1×10^4 cells in McCoy's 5 A medium/well) in quintuplicate and octuplicate for samples and control, respectively, in 96-well microplates and allowed to adhere overnight. […] At the time points indicated, the culture media were replaced by the phenol red-free media containing 10% of Alamar Blue. Cell proliferation was determined from the reduction in dye absorbance at 570 and 600 nm after 4 h of incubation.

Chain of proteinase K (P06873 106-384): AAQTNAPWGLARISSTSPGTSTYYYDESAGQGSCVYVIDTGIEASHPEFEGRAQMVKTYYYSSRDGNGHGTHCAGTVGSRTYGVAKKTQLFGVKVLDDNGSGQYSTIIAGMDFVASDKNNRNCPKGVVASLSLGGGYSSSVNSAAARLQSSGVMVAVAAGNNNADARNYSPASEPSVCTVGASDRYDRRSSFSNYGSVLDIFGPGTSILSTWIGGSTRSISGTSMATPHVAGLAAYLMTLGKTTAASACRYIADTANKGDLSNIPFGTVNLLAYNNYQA

In the case of (−)-epigallocatechin gallate [EGCG], the cytotoxicity [1] is reported as “low cytotoxicity”.
For “free FITC-BSA: fluorescence-labeled protein (FITC-BSA)”, the “fluorescence intensity of FITC-BSA (protein degradation)” value [2] was “greatly increased with time”.
In the case of “oligomeric (−)-epigallocatechin-3-O-gallate [OEGCG]”, the “inhibition of cell growth” value [3] is reported as “inhibited”.
